# Laboratory results from PubChem BioAssay AID2060498 (Molecular Pharmacology Branch, DTP, NCI, 2025).
# System: 171881-019-R-J1-PDC tumor spheroids, viability
# Assay: Anticancer human tumor 171881-019-R-J1-PDC patient-derived invasive breast carcinoma cell line growth inhibition [GQUAD]
# Details: spheroids with HUVEC and MSC; for IC50: curve of first compound; for viability, T/C: stronger effect = lower value
# Description: DNA G-quadruplex Stabilizer Agents in Combinations in Complex Spheroids
# A high-throughput screen of multi-cell type tumor spheroids was designed to identify active combinations of DNA G-quadruplex stabilizer agents and targeted small molecules. Complex spheroids include a stromal component modeled by human endothelial cells (HUVEC) and fibroblasts modeled by human mesenchymal stem cells (MSCs). The concentration ranges selected for each drug and investigational agent were based upon clinically achievable concentrations if the clinical Cmax of the agent was known.
# Compounds. The drugs and investigational agents: pidnarulex (CX-5461; NSC782164), APTO-253 (NSC789042), BRACO-19 (NSC847499), peposertib (NSC802822), ceralasertib (NSC780249), elimusertib (NSC800525), camonsertib (NSC841442), AZD-1390 (NSC803789), olaparib (NSC753686), talazoparib (NSC767125), ART-558 (NSC835418), sotorasib (NSC818433), MRTX-1133 (NSC836407), SN-38 (NSC673596), topotecan (NSC609699), etoposide (NSC141540), doxorubicin (NSC123127), gemcitabine (NSC613327), 5-fluorouracil (NSC19893), paclitaxel (NSC125973), vemurafenib (NSC761431), panobinostat (NSC761190), R-306465 (JNJ-16241199; NSC773264), adavosertib (NSC754352), TP-3654 (NSC805149), carboplatin (NSC241240), KSQ-4279 (NSC840948), and staurosporine (NSC755774) were obtained from the National Cancer Institute (NCI) Developmental Therapeutics Program Chemical Repository (34). The FDA-approved anticancer drug set is available from the NCI Developmental Therapeutics Program. […] The stock solutions were prepared in dimethyl sulfoxide (DMSO, Sigma-Aldrich, St. Louis, MO, cat. D2650) at 800-fold the tested concentration and stored at -70 degrees C prior to their use. All drugs and investigational agents were tested over a range starting from a high concentration at or near the clinical Cmax and decreasing in half-log increments. If the clinical Cmax for an agent had not been determined, the highest concentration tested was 10 microM.
# 2.3 Cell Culture. All cells were maintained in an incubator at 37 degrees C and 5% CO2 with 95% humidity. The PDC lines were cultured according to standard operating procedures established by the NCI PDMR. All PDCs were thawed and cultured in Matrigel-coated flasks prepared with a working solution of 1X Ham's F-12 nutrient mix, without supplementation (Invitrogen, cat. 11765054), 100 U/mL penicillin-streptomycin (Invitrogen, cat. 15140122), and 2.5% Matrigel (Corning Inc., cat. 354248) for the first three passages. The 857933-349-R-J2-PDC line was cultured in 6C/Colon 1B media, which includes advanced DMEM/F-12 (Thermo Fisher Scientific, cat. 12634028), 10 mM HEPES (Thermo Fisher Scientific, cat. 15630080), 1X GlutaMAX supplement (Thermo Fisher Scientific, cat. 35050061), 0.1 mg/mL primocin (InvivoGen, cat. ant-pm-2), 10% defined fetal bovine serum, heat inactivated (HyClone Laboratories Inc., cat. SH30070.03HI), 50% L-WRN conditioned media (ATCC, cat. CRL-3276), 1.25 mM N-Acetyl-L-cysteine (Sigma-Aldrich, cat. A9165), 10 mM nicotinamide (Sigma-Aldrich, cat. N0636), 1X B-27 supplement (Thermo Fisher Scientific, cat. 17504044), 1X N-2 supplement (Thermo Fisher Scientific, cat. 17502048), 10 microM Y-27632 dihydrochloride (Tocris Bioscience, cat. 1254), and 50 ng/mL human EGF recombinant protein (Thermo Fisher Scientific, cat. PHG0311). The 485176-168-R4-J1-PDC line was cultured in Panc media, which includes all 6C/Colon 1B media components plus 100 ng/mL human FGF-10 (Thermo Fisher Scientific, cat. 100-26), 500 nM SB-431542 (Selleckchem, cat. S1067), and gastrin (Tocris, cat. 3006).
# […]
# 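Further: spheroids exposed to compounds for 7 days.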
# 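Wherever viability, T/C is given: 100% = DMSO vehicle control viability.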
smiles,measurement,setting,value
CC(C)(O)C1CCC(Nc2ccc3ncc(-c4cccc(C(F)(F)F)c4)n3n2)CC1 (configuration not stated) + Cc1[nH]c2ccc(F)cc2c1-c1nc2c3cccnc3c3ncccc3c2[nH]1,IC50,second compound 0.0316 µM,1830 nM
same,IC50,second compound 0.1 µM,1820 nM
same,IC50,second compound 0.316 µM,1390 nM
same,IC50,second compound 1 µM,614 nM
same,IC50,second compound 3.16 µM,< 31.6 nM
same,IC50,second compound 10 µM,< 31.6 nM
same,"viability, T/C","second compound 0.0316 µM, first compound 0.0316 µM",94.8%
same,"viability, T/C","second compound 0.0316 µM, first compound 0.1 µM",104%
same,"viability, T/C","second compound 0.0316 µM, first compound 0.316 µM",88.4%
same,"viability, T/C","second compound 0.0316 µM, first compound 1 µM",74.5%
same,"viability, T/C","second compound 0.0316 µM, first compound 3.16 µM",23.8%
same,"viability, T/C","second compound 0.0316 µM, first compound 10 µM",32%
same,"viability, T/C","second compound 0.1 µM, first compound 0.0316 µM",99.5%
same,"viability, T/C","second compound 0.1 µM, first compound 0.1 µM",96.7%
same,"viability, T/C","second compound 0.1 µM, first compound 0.316 µM",97.8%
same,"viability, T/C","second compound 0.1 µM, first compound 1 µM",73.5%
same,"viability, T/C","second compound 0.1 µM, first compound 3.16 µM",25.4%
same,"viability, T/C","second compound 0.1 µM, first compound 10 µM",31.1%
same,"viability, T/C","second compound 0.316 µM, first compound 0.0316 µM",78.7%
same,"viability, T/C","second compound 0.316 µM, first compound 0.1 µM",71.6%
same,"viability, T/C","second compound 0.316 µM, first compound 0.316 µM",66.2%
same,"viability, T/C","second compound 0.316 µM, first compound 1 µM",60%
same,"viability, T/C","second compound 0.316 µM, first compound 3.16 µM",24%
same,"viability, T/C","second compound 0.316 µM, first compound 10 µM",25.4%
same,"viability, T/C","second compound 1 µM, first compound 0.0316 µM",63.6%
same,"viability, T/C","second compound 1 µM, first compound 0.1 µM",47.6%
same,"viability, T/C","second compound 1 µM, first compound 0.316 µM",58.8%
same,"viability, T/C","second compound 1 µM, first compound 1 µM",45.2%
same,"viability, T/C","second compound 1 µM, first compound 3.16 µM",16.4%
same,"viability, T/C","second compound 1 µM, first compound 10 µM",10.9%
same,"viability, T/C","second compound 3.16 µM, first compound 0.0316 µM",6.94%
same,"viability, T/C","second compound 3.16 µM, first compound 0.1 µM",4.45%
same,"viability, T/C","second compound 3.16 µM, first compound 0.316 µM",5.15%
same,"viability, T/C","second compound 3.16 µM, first compound 1 µM",3.84%
same,"viability, T/C","second compound 3.16 µM, first compound 3.16 µM",2.07%
same,"viability, T/C","second compound 3.16 µM, first compound 10 µM",0.75%
same,"viability, T/C","second compound 10 µM, first compound 0.0316 µM",36.5%
same,"viability, T/C","second compound 10 µM, first compound 0.1 µM",42%
same,"viability, T/C","second compound 10 µM, first compound 0.316 µM",28.6%
same,"viability, T/C","second compound 10 µM, first compound 1 µM",24.1%
same,"viability, T/C","second compound 10 µM, first compound 3.16 µM",5.07%
same,"viability, T/C","second compound 10 µM, first compound 10 µM",3.8%
